Counter-ions that a name gives are not always drawn.
Tests used:
[1] = target: T1, Ostα-Ostβ (organic solute transporter, Ostα subunit) (Mus musculus, UniProt Q80WK2+Q8R000); conditions: read-out: % inhibition at 500 μM
T1 sequence (Q8R000 1-340): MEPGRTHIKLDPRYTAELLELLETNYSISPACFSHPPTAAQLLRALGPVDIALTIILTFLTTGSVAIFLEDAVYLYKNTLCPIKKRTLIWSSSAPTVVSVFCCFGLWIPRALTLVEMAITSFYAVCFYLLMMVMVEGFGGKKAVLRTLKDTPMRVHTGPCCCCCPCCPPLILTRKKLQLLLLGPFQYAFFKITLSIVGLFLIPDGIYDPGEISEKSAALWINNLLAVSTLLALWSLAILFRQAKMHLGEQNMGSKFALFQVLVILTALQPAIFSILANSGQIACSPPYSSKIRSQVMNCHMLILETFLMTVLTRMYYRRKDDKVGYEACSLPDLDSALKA
T1 sequence (Q80WK2 1-128): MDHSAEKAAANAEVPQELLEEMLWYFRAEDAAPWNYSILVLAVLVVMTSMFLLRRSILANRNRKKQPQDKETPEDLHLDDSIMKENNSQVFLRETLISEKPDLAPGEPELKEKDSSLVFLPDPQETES

[2] = target: T2, OSTα-OSTβ (organic solute transporter, OSTα subunit) (Homo sapiens, UniProt Q86UW1+Q86UW2); conditions: read-out: % inhibition at 500 μM
T2 sequence (Q86UW1 1-340): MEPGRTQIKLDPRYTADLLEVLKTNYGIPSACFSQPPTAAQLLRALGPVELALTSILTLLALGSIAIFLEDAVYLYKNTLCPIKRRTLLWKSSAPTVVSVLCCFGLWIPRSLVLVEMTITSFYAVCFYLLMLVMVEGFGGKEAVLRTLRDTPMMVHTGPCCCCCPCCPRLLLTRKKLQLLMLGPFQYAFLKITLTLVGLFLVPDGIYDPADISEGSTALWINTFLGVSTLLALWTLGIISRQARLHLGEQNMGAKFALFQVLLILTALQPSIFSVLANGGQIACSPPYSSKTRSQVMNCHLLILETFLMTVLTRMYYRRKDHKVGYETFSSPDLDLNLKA
T2 sequence (Q86UW2 1-128): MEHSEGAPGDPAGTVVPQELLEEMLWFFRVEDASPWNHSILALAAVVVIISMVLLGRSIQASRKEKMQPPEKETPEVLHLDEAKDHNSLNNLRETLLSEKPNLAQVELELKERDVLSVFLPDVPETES

Compound	inhibition at 500 µM [1]	inhibition at 500 µM [2]
C[C@]12CC[C@@H](OS(=O)(=O)O)C[C@@H]1CC[C@@H]1[C@@H]2CC[C@]2(C)C(=O)CC[C@@H]12 [Androsterone sulfate]	~65%	~65%
CC(=O)[C@H]1CC[C@H]2[C@@H]3CC=C4C[C@@H](OS(=O)(=O)O)CC[C@]4(C)[C@H]3CC[C@]12C [PREGS, pregnenolone sulfate]	~65%	–

— paper PMC2939961 (Journal of neurochemistry, 2010)
